Assay results taken from the supplement of paper PMC10307832.

Assays:
Assay in all cases: relative viability (nuclei count vs DMSO), 5 days (fraction); higher = more cells survive
QS11 + AZD7762 = compound: C1CC2=C(C1)C=C(C=C2)OC3=NC(=C4C(=N3)N(C=N4)CC5=CC=C(C=C5)C6=CC=CC=C6)N[C@@H](CC7=CC=CC=C7)CO [QS11] + NC(=O)Nc1cc(-c2cccc(F)c2)sc1C(=O)N[C@H]1CCCNC1 [AZD7762] (partner 0.2 µM)
Method in brief: (§1)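 A single step with final 0.05% Triton X-100, 1% formaldehyde and 1 ug/ml Hoechst fixed the cells and stained nuclei 5 days after treatment. Lung cancer cell lines in 1536-well plates had been treated by pin tool the day after seeding with one drug alone or a fixed anchor-drug dose plus five library-drug doses (not always all listed) in √10 steps, and nuclei were counted on 4× images. Relative viability is the ratio of nuclei in treated wells to nuclei in vehicle wells, taken as the median of duplicate plates.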

[1] = compound: C[As](C)SC[C@H](NC(=O)CC[C@H](N)C(=O)O)C(=O)NCC(=O)O [Darinaparsin] + CC(=O)c1c(C)c2cnc(Nc3ccc(N4CCNCC4)cn3)nc2n(C2CCCC2)c1=O [Palbociclib] (partner 0.5 µM)
Method in brief: as §1

AZ628 + Palbociclib = compound: CC1=C(C=C(C=C1)NC(=O)C2=CC(=CC=C2)C(C)(C)C#N)NC3=CC4=C(C=C3)N=CN(C4=O)C [AZ628] + CC(=O)c1c(C)c2cnc(Nc3ccc(N4CCNCC4)cn3)nc2n(C2CCCC2)c1=O [Palbociclib] (partner 0.5 µM)
Method in brief: as §1

QS11 + Navitoclax = compound: C1CC2=C(C1)C=C(C=C2)OC3=NC(=C4C(=N3)N(C=N4)CC5=CC=C(C=C5)C6=CC=CC=C6)N[C@@H](CC7=CC=CC=C7)CO [QS11] + CC1(C)CCC(c2ccc(Cl)cc2)=C(CN2CCN(c3ccc(C(=O)NS(=O)(=O)c4ccc(N[C@H](CCN5CCOCC5)CSc5ccccc5)c(S(=O)(=O)C(F)(F)F)c4)cc3)CC2)C1 [Navitoclax] (partner 0.5 µM)
Method in brief: as §1

| Cell Line | relative viability (QS11 + AZD7762; first compound 0.08 µM) | relative viability (QS11 + AZD7762; first compound 0.253 µM) | relative viability (QS11 + AZD7762; first compound 0.8 µM) | relative viability (QS11 + AZD7762; first compound 2.53 µM) | relative viability (QS11 + AZD7762; first compound 8 µM) | relative viability ([1]; first compound 0.08 µM) | relative viability ([1]; first compound 2.53 µM) | relative viability ([1]; first compound 8 µM) | relative viability (AZ628 + Palbociclib; first compound 0.08 µM) | relative viability (AZ628 + Palbociclib; first compound 0.253 µM) | relative viability (AZ628 + Palbociclib; first compound 0.8 µM) | relative viability (AZ628 + Palbociclib; first compound 2.53 µM) | relative viability (AZ628 + Palbociclib; first compound 8 µM) | relative viability (QS11 + Navitoclax; first compound 0.08 µM) | relative viability (QS11 + Navitoclax; first compound 0.253 µM) | relative viability (QS11 + Navitoclax; first compound 0.8 µM) | relative viability (QS11 + Navitoclax; first compound 2.53 µM) | relative viability (QS11 + Navitoclax; first compound 8 µM) | relative viability ([1]; first compound 0.8 µM) |
| --- | --- | --- | --- | --- | --- | --- | --- | --- | --- | --- | --- | --- | --- | --- | --- | --- | --- | --- | --- |
| LK-2 | 0.388 | 0.643 | 0.527 | 0.412 | 0.455 | 1 | 0.815 | 0.989 | 0.911 | 0.849 | 0.412 | 0.736 | 0.366 | 0.763 | 0.888 | 0.975 | 0.762 | 1.11 |  |
| LOU-NH91 | 0.764 | 0.707 | 0.751 | 0.719 | 0.818 | 0.576 | 0.562 | 0.641 | 0.535 | 0.526 | 0.547 | 0.557 | 0.539 | 0.626 | 0.572 |  | 0.657 | 0.723 | 0.512 |
| LU99A | 0.326 | 0.348 | 0.398 | 0.362 | 0.239 | 0.425 | 0.354 | 0.451 | 0.366 | 0.368 | 0.381 | 0.442 | 0.369 | 0.867 | 0.841 | 0.937 | 0.847 | 0.592 | 0.438 |
| LXF-289 | 1.14 | 1.08 | 0.899 | 1 | 0.93 | 0.638 | 0.488 | 0.562 | 0.617 | 0.658 | 0.592 | 0.621 | 0.44 | 0.98 | 0.948 | 0.715 | 0.859 | 0.619 | 0.611 |
| NCI-H23 | 0.229 | 0.252 | 0.278 | 0.208 | 0.216 | 0.549 | 0.51 | 0.479 | 0.476 | 0.551 | 0.347 | 0.23 | 0.265 | 0.818 | 0.863 | 0.872 | 0.75 | 0.692 | 0.52 |
| NCI-H322M | 0.525 | 0.515 | 0.477 | 0.53 | 0.552 | 0.478 | 0.487 | 0.442 | 0.513 | 0.519 | 0.466 | 0.505 | 0.449 | 1.21 | 1.21 | 1.22 | 1.35 | 1.26 | 0.456 |
| NCI-H441 | 1.02 | 1.39 | 0.963 | 0.964 | 0.942 | 0.264 | 0.21 | 0.188 | 0.184 | 0.18 | 0.147 | 0.145 | 0.151 | 0.452 | 1.04 | 0.673 | 0.723 | 0.529 | 0.214 |
| NCI-H460 | 0.703 | 0.644 | 0.493 | 0.638 | 0.889 | 0.147 | 0.117 | 0.181 | 0.148 | 0.168 | 0.147 | 0.17 | 0.123 | 1.1 | 1.25 | 0.882 | 1.06 | 0.308 | 0.176 |
| NCI-H647 | 0.441 | 0.302 | 0.592 | 0.385 | 0.565 | 0.467 | 0.357 | 0.561 | 0.493 | 0.43 | 0.322 | 0.357 | 0.289 | 1.28 | 1.12 | 1.07 | 1.13 | 1.1 | 0.406 |
| NCI-H727 | 0.694 | 0.581 | 0.584 | 0.727 | 0.612 | 0.692 | 0.698 | 0.585 | 0.553 |  |  | 0.517 | 0.363 | 0.389 | 0.346 | 0.47 | 0.301 | 0.328 | 0.573 |
| NCI-H838 | 1 | 0.87 | 0.844 | 0.905 | 1.03 | 0.245 | 0.229 | 0.229 | 0.214 | 0.205 | 0.203 | 0.224 | 0.192 | 1.11 | 1.1 | 0.755 | 1.2 | 1.02 | 0.216 |
| NCI-H1355 | 0.729 | 0.607 | 0.666 | 0.614 | 0.759 | 0.445 | 0.322 | 0.387 | 0.411 | 0.397 | 0.388 | 0.373 | 0.294 | 0.876 | 0.869 | 0.791 | 1.03 | 0.881 | 0.398 |
| NCI-H1395 | 0.389 | 0.382 | 0.4 | 0.432 | 0.404 | 0.617 | 0.54 | 0.646 | 0.614 | 0.612 | 0.622 | 0.609 | 0.631 |  | 1.09 | 1.31 | 1.45 | 1.02 | 0.54 |
| NCI-H1437 | 1.12 | 1.18 | 0.891 | 1.08 | 1.11 | 0.321 | 0.328 | 0.338 | 0.317 | 0.297 | 0.274 | 0.425 | 0.379 | 1.12 | 1.22 | 0.718 | 0.943 | 0.936 | 0.307 |
| NCI-H1651 | 0.445 | 0.481 | 0.487 | 0.458 | 0.404 | 0.515 | 0.527 | 0.522 | 0.544 | 0.536 | 0.529 | 0.562 | 0.625 | 1.13 | 0.998 | 0.936 | 0.98 | 0.839 | 0.531 |
| NCI-H1666 | 0.959 | 0.806 | 0.682 | 0.727 | 0.63 | 0.666 | 0.634 | 0.678 | 0.678 | 0.666 | 0.683 | 0.71 | 0.685 | 1.04 | 0.868 | 0.932 | 0.55 | 0.472 | 0.673 |
| NCI-H1734 | 0.579 | 0.595 | 0.71 | 0.465 | 0.529 | 0.35 | 0.361 | 0.395 | 0.367 | 0.301 | 0.299 | 0.319 | 0.225 | 0.803 | 0.96 | 0.751 | 0.568 | 0.663 | 0.332 |
| NCI-H1755 | 0.472 | 0.492 | 0.42 | 0.48 | 0.413 | 0.483 | 0.46 | 0.469 | 0.449 | 0.461 | 0.446 | 0.435 | 0.397 | 1.03 | 0.994 | 0.531 | 0.898 | 0.834 | 0.457 |
| NCI-H1792 |  | 0.733 | 0.595 | 0.385 | 0.34 | 0.634 | 0.524 | 0.754 | 0.66 | 0.632 | 0.52 | 0.558 | 0.388 |  | 0.744 | 0.5 | 0.6 | 0.479 | 0.633 |
| NCI-H1793 | 0.449 | 0.519 | 0.514 | 0.407 | 0.418 | 0.359 |  | 0.369 | 0.35 | 0.403 | 0.305 | 0.266 | 0.255 | 0.393 | 0.482 | 0.38 | 0.436 | 0.404 | 0.374 |
| NCI-H1915 | 0.693 | 0.702 |  | 0.753 | 0.634 | 0.573 | 0.502 | 0.539 | 0.398 | 0.392 | 0.316 | 0.316 | 0.205 | 0.816 | 0.805 |  | 0.865 | 0.868 | 0.52 |
| NCI-H1944 | 0.49 | 0.519 |  | 0.421 | 0.39 | 0.314 | 0.31 | 0.404 | 0.359 | 0.312 | 0.305 | 0.311 | 0.229 | 1.06 | 1.1 |  | 1.07 | 0.973 | 0.339 |
| NCI-H1975 | 0.668 | 0.629 | 0.849 | 0.874 | 0.919 | 0.693 | 0.504 | 0.606 | 0.504 | 0.485 | 0.548 | 0.534 | 0.233 | 1.09 | 1.2 | 1.02 | 1.59 | 1.26 | 0.634 |
| NCI-H1993 | 0.793 | 0.88 | 0.927 | 0.771 | 0.615 | 0.586 | 0.59 | 0.68 | 0.685 | 0.548 | 0.496 | 0.595 | 0.266 | 0.833 | 0.761 | 0.997 | 0.946 | 0.893 | 0.743 |
| NCI-H2085 | 1.01 | 1.06 | 0.791 | 1 | 0.991 | 0.466 | 0.508 | 0.457 | 0.478 | 0.445 | 0.496 | 0.493 | 0.43 | 1.18 | 1.17 | 1.08 | 1.29 | 1.41 | 0.482 |
| NCI-H2087 | 1.28 | 1.4 | 1.08 | 1.3 | 1.3 | 0.225 | 0.169 | 0.204 | 0.194 | 0.157 | 0.165 | 0.149 | 0.173 | 1.05 | 1.02 | 0.733 | 0.931 | 0.785 | 0.215 |
| NCI-H2126 | 1.01 | 0.999 | 0.846 | 1.01 | 0.933 | 0.371 | 0.352 | 0.334 | 0.351 | 0.325 | 0.323 | 0.383 | 0.32 | 0.867 | 0.796 | 0.67 | 0.823 | 0.62 | 0.344 |
| NCI-H2170 | 0.87 | 0.942 | 0.722 | 0.871 | 1.02 | 0.427 | 0.385 | 0.411 | 0.413 | 0.349 | 0.381 | 0.418 | 0.424 | 0.575 | 0.584 | 0.572 | 0.605 | 0.695 | 0.425 |
